Laboratory results taken from patent US12565505B2, “mTORC modulators and uses thereof” (Aeovian Pharmaceuticals, Inc., priority 2019, dated 2026).
Each block holds one compound with its values, some of them ahead of it.

Assays:
mTORC1 = biological target: T1, mTORC1 (Homo sapiens, UniProt P42345+P62942); assay: Inhibition assay for mTORC1: phosphorylation of pS6K at Thr389, AlphaLISA SureFire in PC3 cells; assay type: cell-based; conditions: PC3 cells, 24 hours treatment, pS6K Thr389; analogs substituted at C40 and C16 (C16 diastereomer mixtures not isolated); read-out: pIC50 mTORC1 (converted)
T1 construct: endogenous in cells; host or cells: PC3 cells (human prostate adenocarcinoma)
Protocol: (§1) The IC50s of the inhibition of mTORC1 and mTORC2 were determined in vitro by determining the phosphorylation of pS6K at position Thr389 (mTORC1 inhibition) and pAkt at Ser473 (mTORC2 inhibition). In vitro studies were performed with AiphaLISA® technology using PC3 cells (Prostate Adenocarcinoma; Human (Homo sapiens)). The cells were seeded in 96 well plates and were treated for 24 hours with the different compounds. […] All analysis were performed using GraphPad Prism 7.0 (GraphPad Software, San Diego, USA).
Tables 5-7 include PIC50 values for mTORC1 of selected compounds; with compounds having an PIC50 for mTORC1 of >9.5 as A, 8.5 to 9.5 as B, and less than 8.5 as C.

mTORC2 = biological target: T2, mTORC2 (Homo sapiens, UniProt P42345+P62942); assay: Inhibition assay for mTORC2: phosphorylation of pAkt at Ser473, AlphaLISA SureFire in PC3 cells; assay type: cell-based; conditions: PC3 cells, 24 hours treatment, analogs substituted at C40 and C16 (C16 diastereomer mixtures not isolated), read-out: pIC50 mTORC2 (converted)
T2 construct: endogenous in cells; host or cells: PC3 cells (human prostate adenocarcinoma)
Protocol: as §1, with “USA). […]” for “USA).”

Compound: COCCOC1C[C@@H]2CC[C@@H](C)[C@@](O)(O2)C(=O)C(=O)N2CCCCC2C(=O)O[C@H]([C@H](C)C[C@@H]2CC[C@@H](OCCCN3CCO[C@H](C)C3)[C@H](OC)C2)CC(=O)[C@H](C)/C=C(\C)[C@@H](O)[C@@H](OC)C(=O)[C@H](C)C[C@H](C)/C=C/C=C/C=C/1C (some centres unmarked) [Compound 36]
IC50 (mTORC1): < 0.316 nM | IC50 (mTORC2): 1000 to 10000 nM

Compound: COCCOC1C[C@@H]2CC[C@@H](C)[C@@](O)(O2)C(=O)C(=O)N2CCCCC2C(=O)O[C@H]([C@H](C)C[C@@H]2CC[C@@H](OC(=O)NCCN3CCOCC3)[C@H](OC)C2)CC(=O)[C@H](C)/C=C(\C)[C@@H](O)[C@@H](OC)C(=O)[C@H](C)C[C@H](C)/C=C/C=C/C=C/1C (some centres unmarked) [Compound 30]
IC50 (mTORC1): < 0.316 nM | IC50 (mTORC2): 1000 to 10000 nM

Compound: COCCOC1C[C@@H]2CC[C@@H](C)[C@@](O)(O2)C(=O)C(=O)N2CCCCC2C(=O)O[C@H]([C@H](C)C[C@@H]2CC[C@@H](OCCCN3CCN(C)CC3)[C@H](OC)C2)CC(=O)[C@H](C)/C=C(\C)[C@@H](O)[C@@H](OC)C(=O)[C@H](C)C[C@H](C)/C=C/C=C/C=C/1C (some centres unmarked) [Compound 32]
IC50 (mTORC1): < 0.316 nM | IC50 (mTORC2): 1000 to 10000 nM

Compound: CO[C@@H]1C[C@H](C[C@@H](C)[C@@H]2CC(=O)[C@H](C)/C=C(\C)[C@@H](O)[C@@H](OC)C(=O)[C@H](C)C[C@H](C)/C=C/C=C/C=C(\C)C(OCCO)C[C@@H]3CC[C@@H](C)[C@@](O)(O3)C(=O)C(=O)N3CCCCC3C(=O)O2)CC[C@H]1OCCCN1CCOC(C)(C)C1 (some centres unmarked) [Compound 12]
IC50 (mTORC1): < 0.316 nM | IC50 (mTORC2): > 10000 nM

Compound: CO[C@@H]1C[C@H](C[C@@H](C)[C@@H]2CC(=O)[C@H](C)/C=C(\C)[C@@H](O)[C@@H](OC)C(=O)[C@H](C)C[C@H](C)/C=C/C=C/C=C(\C)C(OCCO)C[C@@H]3CC[C@@H](C)[C@@](O)(O3)C(=O)C(=O)N3CCCCC3C(=O)O2)CC[C@H]1OCCCO (some centres unmarked) [Compound 10]
IC50 (mTORC1): < 0.316 nM | IC50 (mTORC2): > 10000 nM

Compound: COCCCOC1C[C@@H]2CC[C@@H](C)[C@@](O)(O2)C(=O)C(=O)N2CCCCC2C(=O)O[C@H]([C@H](C)C[C@@H]2CC[C@@H](OCCO)[C@H](OC)C2)CC(=O)[C@H](C)/C=C(\C)[C@@H](O)[C@@H](OC)C(=O)[C@H](C)C[C@H](C)/C=C/C=C/C=C/1C (some centres unmarked) [Compound 31]
IC50 (mTORC1): < 0.316 nM | IC50 (mTORC2): 1000 to 10000 nM

Compound: COCCCCOC1C[C@@H]2CC[C@@H](C)[C@@](O)(O2)C(=O)C(=O)N2CCCCC2C(=O)O[C@H]([C@H](C)C[C@@H]2CC[C@@H](OCCCO)[C@H](OC)C2)CC(=O)[C@H](C)/C=C(\C)[C@@H](O)[C@@H](OC)C(=O)[C@H](C)C[C@H](C)/C=C/C=C/C=C/1C (stereo partly drawn) [Compound 70, (1R,9S,12S,15R,16E,18R,19R,21R,23S,24E,26E,28E,32S,35R)-1,18-dihydroxy-12-[(1R)-2-[(1S,3R,4R)-4-(3-hydroxypropoxy)-3-methoxy-cyclohexyl]-1-methyl-ethyl]-19-methoxy-30-(4-methoxybutoxy)-15,17,21,23,29,35-hexamethyl-11,36-dioxa-4-azatricyclo[30.3.1.0^4,9]hexatriaconta-16,24,26,28-tetraene-2,3,10,14,20-pentone]
IC50 (mTORC1): < 0.316 nM | IC50 (mTORC2): 1000 to 10000 nM

Compound: CO[C@@H]1CC[C@@H](C[C@@H](C)[C@@H]2CC(=O)[C@H](C)/C=C(\C)[C@@H](O)[C@@H](OC)C(=O)[C@H](C)C[C@H](C)/C=C/C=C/C=C(\C)C(OCCCCO)C[C@@H]3CC[C@@H](C)[C@@](O)(O3)C(=O)C(=O)N3CCCCC3C(=O)O2)C[C@H]1OC (some centres unmarked) [Compound 24]
IC50 (mTORC1): < 0.316 nM | IC50 (mTORC2): > 10000 nM

Compound: CO[C@@H]1C[C@H](C[C@@H](C)[C@@H]2CC(=O)[C@H](C)/C=C(\C)[C@@H](O)[C@@H](OC)C(=O)[C@H](C)C[C@H](C)/C=C/C=C/C=C(\C)C(OCCO)C[C@@H]3CC[C@@H](C)[C@@](O)(O3)C(=O)C(=O)N3CCCCC3C(=O)O2)CC[C@H]1OCCO (some centres unmarked) [Compound 9]
IC50 (mTORC1): < 0.316 nM | IC50 (mTORC2): > 10000 nM

Compound: CO[C@@H]1C[C@H](C[C@@H](C)[C@@H]2CC(=O)[C@H](C)/C=C(\C)[C@@H](O)[C@@H](OC)C(=O)[C@H](C)C[C@H](C)/C=C/C=C/C=C(\C)C(OCCO)C[C@@H]3CC[C@@H](C)[C@@](O)(O3)C(=O)C(=O)N3CCCCC3C(=O)O2)CC[C@H]1OC(=O)N(C)CCN1CCOCC1 (stereo partly drawn) [Compound 41, [(1R,2R,4S)-4-[(2R)-2-[(1R,9S,12S,15R,16E,18R,19R,21R,23S,24E,26E,28E,32S,35R)-1,18-dihydroxy-30-(2-hydroxyethoxy)-19-methoxy-15,17,21,23,29,35-hexamethyl-2,3,10,14,20-pentaoxo-11,36-dioxa-4-azatricyclo[30.3.1.0^4,9]hexatriaconta-16,24,26,28-tetraen-12-yl]propyl]-2-methoxy-cyclohexyl] N-methyl-N-(2-morpholinoethyl)carbamate]
IC50 (mTORC1): < 0.316 nM | IC50 (mTORC2): 1000 to 10000 nM

Further lines, results first:

IC50 (mTORC1): < 0.316 nM | IC50 (mTORC2): < 1000 nM
Compound: CO[C@@H]1C[C@H](C[C@@H](C)[C@@H]2CC(=O)[C@H](C)/C=C(\C)[C@@H](O)[C@@H](OC)C(=O)[C@H](C)C[C@H](C)/C=C/C=C/C=C(\C)C(OCCc3ccccc3)C[C@@H]3CC[C@@H](C)[C@@](O)(O3)C(=O)C(=O)N3CCCCC3C(=O)O2)CC[C@H]1OC(=O)NCCN1CCOCC1 (some centres unmarked) [Compound 93]

IC50 (mTORC1): 0.316 to 3.16 nM | IC50 (mTORC2): 1000 to 10000 nM
Compound: CO[C@@H]1C[C@H](C[C@@H](C)[C@@H]2CC(=O)[C@H](C)/C=C(\C)[C@@H](O)[C@@H](OC)C(=O)[C@H](C)C[C@H](C)/C=C/C=C/C=C(\C)C(OCCC3CCOCC3)C[C@@H]3CC[C@@H](C)[C@@](O)(O3)C(=O)C(=O)N3CCCCC3C(=O)O2)CC[C@H]1OCCCO (some centres unmarked) [Compound 106]

IC50 (mTORC1): 0.316 to 3.16 nM | IC50 (mTORC2): 1000 to 10000 nM
Compound: CO[C@@H]1C[C@H](C[C@@H](C)[C@@H]2CC(=O)[C@H](C)/C=C(\C)[C@@H](O)[C@@H](OC)C(=O)[C@H](C)C[C@H](C)/C=C/C=C/C=C(\C)C(OCCO)C[C@@H]3CC[C@@H](C)[C@@](O)(O3)C(=O)C(=O)N3CCCCC3C(=O)O2)CC[C@H]1OC(=O)N(C)CCO (some centres unmarked) [Compound 83]

IC50 (mTORC1): < 0.316 nM | IC50 (mTORC2): < 1000 nM
Compound: CO[C@@H]1C[C@H](C[C@@H](C)[C@@H]2CC(=O)[C@H](C)/C=C(\C)[C@@H](O)[C@@H](OC)C(=O)[C@H](C)C[C@H](C)/C=C/C=C/C=C(\C)C(OCCc3ccccc3)C[C@@H]3CC[C@@H](C)[C@@](O)(O3)C(=O)C(=O)N3CCCCC3C(=O)O2)CC[C@H]1OC(=O)NCCN(C)C (stereo partly drawn) [Compound 104, [(1R,2R,4S)-4-[(2R)-2-[(1R,9S,12S,15R,16E,18R,19R,21R,23S,24E,26E,28E,32S,35R)-1,18-dihydroxy-19-methoxy-15,17,21,23,29,35-hexamethyl-2,3,10,14,20-pentaoxo-30-(2-phenylethoxy)-11,36-dioxa-4-azatricyclo[30.3.1.0^4,9]hexatriaconta-16,24,26,28-tetraen-12-yl]propyl]-2-methoxy-cyclohexyl] N-[2-(dimethylamino)ethyl]carbamate]

IC50 (mTORC1): > 3.16 nM | IC50 (mTORC2): > 10000 nM
Compound: CO[C@@H]1C[C@H](C[C@@H](C)[C@@H]2CC(=O)[C@H](C)/C=C(\C)[C@@H](O)[C@@H](OC)C(=O)[C@H](C)C[C@H](C)/C=C/C=C/C=C(\C)C(OC(C)C)C[C@@H]3CC[C@@H](C)[C@@](O)(O3)C(=O)C(=O)N3CCCCC3C(=O)O2)CC[C@H]1OCCCc1ccccc1 (some centres unmarked) [Compound 96]

IC50 (mTORC1): < 0.316 nM | IC50 (mTORC2): < 1000 nM
Compound: CO[C@@H]1C[C@H](C[C@@H](C)[C@@H]2CC(=O)[C@H](C)/C=C(\C)[C@@H](O)[C@@H](OC)C(=O)[C@H](C)C[C@H](C)/C=C/C=C/C=C(\C)C(OCCc3ccccc3)C[C@@H]3CC[C@@H](C)[C@@](O)(O3)C(=O)C(=O)N3CCCCC3C(=O)O2)CC[C@H]1OC(=O)NCCN1CCCCC1 (some centres unmarked) [Compound 113]

IC50 (mTORC1): 0.316 to 3.16 nM | IC50 (mTORC2): 1000 to 10000 nM
Compound: CO[C@@H]1C[C@H](C[C@@H](C)[C@@H]2CC(=O)[C@H](C)/C=C(\C)[C@@H](O)[C@@H](OC)C(=O)[C@H](C)C[C@H](C)/C=C/C=C/C=C(\C)C(OCC(C)(C)O)C[C@@H]3CC[C@@H](C)[C@@](O)(O3)C(=O)C(=O)N3CCCCC3C(=O)O2)CC[C@H]1OCCO (some centres unmarked) [Compound 91]

IC50 (mTORC1): < 0.316 nM | IC50 (mTORC2): 1000 to 10000 nM
Compound: CO[C@@H]1C[C@H](C[C@@H](C)[C@@H]2CC(=O)[C@H](C)/C=C(\C)[C@@H](O)[C@@H](OC)C(=O)[C@H](C)C[C@H](C)/C=C/C=C/C=C(\C)C(OCCCCO)C[C@@H]3CC[C@@H](C)[C@@](O)(O3)C(=O)C(=O)N3CCCCC3C(=O)O2)CC[C@H]1OCCO (some centres unmarked) [Compound 63]

IC50 (mTORC1): 0.316 to 3.16 nM | IC50 (mTORC2): > 10000 nM
Compound: CO[C@@H]1C[C@H](C[C@@H](C)[C@@H]2CC(=O)[C@H](C)/C=C(\C)[C@@H](O)[C@@H](OC)C(=O)[C@H](C)C[C@H](C)/C=C/C=C/C=C(\C)C(OC3COC3)C[C@@H]3CC[C@@H](C)[C@@](O)(O3)C(=O)C(=O)N3CCCCC3C(=O)O2)CC[C@H]1OC(=O)NCCN1CCOCC1 (some centres unmarked) [Compound 71]
